Measured values: patent EP0848008A1, “Organotin compounds and compositions containing these compounds” (PHARMACHEMIE B.V., priority 1996, dated 1998)

What was measured:
Type in all cases: cell-based
M19MEL = experiment: In vitro anti-tumour cell growth inhibition (method of Skehan et al.), M19MEL; details: melanoma, amount which inhibits 50% of the cell growth
Procedure: (§1) Compounds 1, 2 and 3 were tested in vitro. together with 2 reference compounds used clinically (carboplatin and cisplatin), against MCF-7 and EVSA-T, two breast cancers, WiDr, a colon cancer, IGROV, an ovarian cancer, M19MEL, a melanoma, A498, a renal cancer, and H226, a non small cell lung cancer. The tests were carried out according to the method of Skehan et al, Journal of the National Cancer Institute, 1990; 82: 1107-1112.

A498 = experiment: In vitro anti-tumour cell growth inhibition (method of Skehan et al.), A498; details: A498, renal cancer; amount which inhibits 50% of the cell growth
Procedure: as §1

EVSA-T = experiment: In vitro anti-tumour cell growth inhibition (method of Skehan et al.), EVSA-T; details: breast cancer, amount which inhibits 50% of the cell growth
Procedure: as §1

WiDr = experiment: In vitro anti-tumour cell growth inhibition (method of Skehan et al.), WiDr; details: colon cancer, amount which inhibits 50% of the cell growth
Procedure: as §1

H226 = experiment: In vitro anti-tumour cell growth inhibition (method of Skehan et al.), H226; details: H226, non small cell lung cancer; amount which inhibits 50% of the cell growth
Procedure: as §1

IGROV = experiment: In vitro anti-tumour cell growth inhibition (method of Skehan et al.), IGROV; details: ovarian cancer, amount which inhibits 50% of the cell growth
Procedure: as §1

MCF-7 = experiment: In vitro anti-tumour cell growth inhibition (method of Skehan et al.), MCF-7; details: MCF-7, breast cancer; amount which inhibits 50% of the cell growth
Procedure: as §1

SMILES	ID50 (M19MEL) [µg/mL]	ID50 (A498) [µg/mL]	ID50 (EVSA-T) [µg/mL]	ID50 (WiDr) [µg/mL]	ID50 (H226) [µg/mL]	ID50 (IGROV) [µg/mL]	ID50 (MCF-7) [µg/mL]
N.N.O=C([O-])C1(C(=O)[O-])CCC1.[Pt+2] [Carboplatin, carboplatin, reference compound]	5.5	18	4.5	3.5	25	2.4	10.5
N.N.[Cl][Pt][Cl] [Cisplatin, cisplatin, reference compound]	0.78	1.2	0.92	1.55	3.158	0.23	1.4
CC1(C)OC(=O)CC1C(=O)[O-].CC1(C)OC(=O)CC1C(=O)[O-].CCC[CH2][Sn+2][CH2]CCC (centres unmarked) [Compound 1, Di-n-butyltin diterebate]	0.061	0.061	0.025	0.134	0.104	0.018	0.027
CC1(C)OC(=O)CC1C(=O)[O-].CCC[CH2][Sn+]([CH2]CCC)[CH2]CCC [Compound 2, tri-n-butyltin terebate]	0.011	0.015	<0.003	0.011	0.008	0.004	0.003
CC1(C)OC(=O)CC1C(=O)[O-].c1cc[c]([Sn+]([c]2ccccc2)[c]2ccccc2)cc1 [Compound 3, triphenyltin terebate]	0.042	0.042	<0.003	0.017	0.039	0.019	0.017
